Measurements reported in patent US5965701A, “Kappa receptor opioid peptides” (priority 1997, dated 1999).
Several values for one entry are separate records, joined by “and”; a condition that tells them apart may be missing. Equal entries are not always repeated. Where a SMILES comes first, the peptide text is derived from it. [ ]: non-standard residue; d: D form. The star is where a group is joined. dPhe(3,4-Cl2) = N[C@H](Cc1ccc(Cl)c(Cl)c1)C(=O)O; dPhe(4-CH2NH2) = NCc1ccc(C[C@@H](N)C(=O)O)cc1; dPhe(4-Cl) = N[C@H](Cc1ccc(Cl)cc1)C(=O)O; dPhe(4-F) = N[C@H](Cc1ccc(F)cc1)C(=O)O; d2Nal = N[C@H](Cc1ccc2ccccc2c1)C(=O)O; d2Thi = N[C@H](Cc1cccs1)C(=O)O; NH(3-picolyl) = c1cncc(CN*)c1; NH(4-picolyl) = c1cc(CN*)ccn1; dNle = CCCC[C@@H](N)C(=O)O; Morpholide = C1CN(*)CCO1; Piperidide = C1CCN(*)CC1; NHCH2CH2OH = OCCN*; X2 = OC1CCN(*)CC1; X1 = C1CN(*)CCS1; NHBu = CCCCN*

Columns and labels:
[1] = tested on: conscious male ICR mice; test: Mouse acetic acid writhing test (WT); format: in vivo; conditions: for WT-ED50: i.v., 5 minutes before acetic acid i.p., writhes over 15 minutes; for % Antinociception 1 hr / % Antinociception 2 hr: submaximal effective dose i.v., percentage of the activity found at -5 min; for % Antinociception 1 hr: 60 min pretreatment; for % Antinociception 2 hr: 120 min pretreatment
Protocol: Selected peptides that are identified in Tables A-G have been further specifically subjected to in vivo testing for determination of duration of action of their opioid properties, and the results are reported in Table H hereinafter. The peptide numbers correspond to those in the earlier tables and the figures with regard to μ/K ratio are simply carried over for reference purposes. The in vivo testing is carried out using a mouse writhing test (WT) that is well-suited for determining the length of duration of antinociceptive biological activity. This test is described in detail in an article by G. A. Bentley et al., Br. J. Phamac., 73:325-332, 1981, and it employs conscious male ICR mice which are purchased from Harlan and which weigh between 20 and 30 grams. The mice are fasted for 12 to 16 hours prior to beginning the test. The nociceptive behavior, i.e. writhing, to be monitored is induced by the intraperitoneal (i.p.) administration of dilute acetic acid. 10 milliliters of 0.6% aqueous acetic acid is used per kg of body weight. Writhing is scored during the 15 minutes following acetic acid administration. In a first step, compounds are tested at 3 to 4 increasing doses, given by intravenous route, and at one unique pretreatment time (-5 minutes before acetic acid injection). […] In a second step, this submaximal effective dose for each specific peptide is administered at various pretreatment times (i.e. -5 minutes, -60 minutes, -120 minutes and -180 minutes) prior to the administration of the acetic acid in order to determine the duration of action. Throughout the test, a control group of mice are used which are administered only the vehicle without the candidate peptide. The number of writhes are counted over a 15-minute period, starting from the time of acetic acid injection, and bioactivity, i.e. antinociception, is expressed as a percentage, and is calculated as follows:
100×(writhes in control group-writhes in treated group)/writhes in
Values higher than 100% indicate greater antinociception than at the beginning of the experiment. It is felt that the opioid peptide should be effective to reduce writhing by at least about 25% at a time of 1 hour to be considered to have long duration of in vivo action.
In addition to using this test to determine duration of antinociceptive activity, it is also used to measure the in vivo biopotency (short term) of the peptide. This value is given in the table under the heading WT-ED50 in milligrams per kg of body weight. The value is a measure of the dosage necessary to reduce the number of writhes in the mouse being tested by 50% (as compared to a control mouse) over a period of 15 minutes.

[2] = biological target: T1, cloned human kappa (hKOR) receptor (Homo sapiens, UniProt P41145); test: biochemical; format: binding; conditions: for μ/κ Ratio (binding affinity for KOR versus MOR): Ki MOR / Ki KOR; for Ki: read-out: Ki KOR
T1 construct: expressed in transfected cells; host or cells: HN9.10 (mouse hippocampal neuroblastoma), stably transfected
T1 sequence (P41145 whole entry): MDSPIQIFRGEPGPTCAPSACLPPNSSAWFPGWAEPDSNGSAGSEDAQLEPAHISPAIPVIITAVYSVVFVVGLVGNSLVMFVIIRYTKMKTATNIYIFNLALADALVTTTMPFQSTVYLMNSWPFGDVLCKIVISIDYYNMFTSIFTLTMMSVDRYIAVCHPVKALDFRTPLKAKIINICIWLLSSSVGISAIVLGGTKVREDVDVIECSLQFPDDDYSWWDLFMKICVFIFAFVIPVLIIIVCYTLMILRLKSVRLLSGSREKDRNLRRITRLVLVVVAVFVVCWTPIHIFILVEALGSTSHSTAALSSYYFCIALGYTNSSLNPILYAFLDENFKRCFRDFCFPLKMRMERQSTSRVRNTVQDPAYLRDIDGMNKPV

[3] = biological target: T2, cloned human mu opioid (hMOR) receptor (Homo sapiens, UniProt P35372); test: Competition binding at cloned hMOR, displacement of 3H-DAMGO; conditions: hMOR stably expressed in HN.9.10 cells, read-out: Ki MOR
T2 construct: expressed in transfected cells; host or cells: HN9.10 (mouse hippocampal neuroblastoma), stably transfected
T2 sequence (P35372 whole entry): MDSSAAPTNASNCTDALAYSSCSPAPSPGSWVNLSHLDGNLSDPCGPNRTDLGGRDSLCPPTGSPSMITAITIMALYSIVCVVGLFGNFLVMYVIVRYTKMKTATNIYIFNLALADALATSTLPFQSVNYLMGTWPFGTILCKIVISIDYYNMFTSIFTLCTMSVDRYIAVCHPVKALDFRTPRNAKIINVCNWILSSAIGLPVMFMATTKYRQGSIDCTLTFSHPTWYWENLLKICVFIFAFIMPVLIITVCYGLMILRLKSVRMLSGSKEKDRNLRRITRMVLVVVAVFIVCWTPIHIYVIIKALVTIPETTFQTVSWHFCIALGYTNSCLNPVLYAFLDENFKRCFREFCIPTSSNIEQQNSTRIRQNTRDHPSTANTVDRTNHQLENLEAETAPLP

Row | Compound | WT-ED50 [1] | % Antinociception 1 hr [1] | % Antinociception 2 hr [1] | μ/κ Ratio (binding affinity for KOR versus MOR) [2] | Ki [2] | Ki [3]
1 | CCCC[C@@H](NC(=O)[C@@H](Cc1ccccc1)NC(=O)[C@H](N)Cc1ccccc1)C(=O)N[C@H](CCCNC(=N)N)C(=O)NC [Peptide 2, H-D-Phe-D-Phe-D-Nle-D-Arg-NHMe] (H-[dF][dF][dNle][dR]-NHMe) | 0.14 mg/kg | 70.5% | 29.8% | 60,000 | 0.06 nM | 3620 nM
2 | CCCCNC(=O)[C@@H](CCCNC(=N)N)NC(=O)[C@@H](CCCC)NC(=O)[C@@H](Cc1ccccc1)NC(=O)[C@H](N)Cc1ccccc1 [Peptide 4, H-D-Phe-D-Phe-D-Nle-D-Arg-NHBu] (H-[dF][dF][dNle][dR]-NHBu) | 0.3 mg/kg and 0.30 mg/kg | 49.3% |  | 7,200 | 0.19 nM | 1370 nM
3 | CCCC[C@@H](NC(=O)[C@@H](Cc1ccccc1)NC(=O)[C@H](N)Cc1ccccc1)C(=O)N[C@H](CCCNC(=N)N)C(=O)NCCO [Peptide 9, H-D-Phe-D-Phe-D-Nle-D-Arg-NHhEt] (H-[dF][dF][dNle][dR]-NHCH2CH2OH) | 0.03 mg/kg | 72.5% | 39.5% | 2,500 | 0.4 nM | 1010 nM
4 | CCCC[C@@H](NC(=O)[C@@H](Cc1ccccc1)NC(=O)[C@H](N)Cc1ccccc1)C(=O)N[C@H](CCCNC(=N)N)C(=O)N1CCSCC1 [Peptide 10, H-D-Phe-D-Phe-D-Nle-D-Arg-Tmo] (H-[dF][dF][dNle][dR]-X1) | 0.067 mg/kg and 0.07 mg/kg | 81.6% | 47.5% | 25,000 | 0.09 nM | 2260 nM
5 | CCCC[C@@H](NC(=O)[C@@H](Cc1ccccc1)NC(=O)[C@H](N)Cc1ccccc1)C(=O)N[C@H](CCCNC(=N)N)C(=O)N1CCC(O)CC1 [Peptide 11, H-D-Phe-D-Phe-D-Nle-D-Arg-4-HyP] (H-[dF][dF][dNle][dR]-X2) | 0.073 mg/kg and 0.07 mg/kg | 61.8% | 36.9% | 62,000 | 0.06 nM | 3700 nM
6 | CCCC[C@@H](NC(=O)[C@@H](Cc1ccccc1)NC(=O)[C@H](N)Cc1ccccc1)C(=O)N[C@H](CCCNC(=N)N)C(=O)N1CCCCC1 [Peptide 12, H-D-Phe-D-Phe-D-Nle-D-Arg-Pip] (H-[dF][dF][dNle][dR]-Piperidide) | 0.07 mg/kg | 60.5% | 53.6% | 7,000 | 0.15 nM | 1050 nM
7 | CCCC[C@@H](NC(=O)[C@@H](Cc1ccccc1)NC(=O)[C@H](N)Cc1ccccc1)C(=O)N[C@H](CCCNC(=N)N)C(=O)NCc1cccnc1 [Peptide 54, H-D-Phe-D-Phe-D-Nle-D-Arg-NH(3Pic)] (H-[dF][dF][dNle][dR]-{NH(3-picolyl)}) |  |  |  | 3,100 | 0.39 nM | 1220 nM
8 | CCCC[C@@H](NC(=O)[C@@H](Cc1ccccc1)NC(=O)[C@H](N)Cc1ccccc1)C(=O)N[C@H](Cc1ccc(CN)cc1)C(=O)NCC [Peptide 55, H-D-Phe-D-Phe-D-Nle-D-Amf-NHEt] (H-[dF][dF][dNle][dPhe(4-CH2NH2)]-NHEt) |  |  |  | 12,500 | 0.14 nM | 1750 nM
9 | CC(C)C[C@@H](NC(=O)[C@@H](Cc1ccc(Cl)cc1)NC(=O)[C@H](N)Cc1cccs1)C(=O)N[C@H](CCCNC(=N)N)C(=O)N1CCOCC1 [Peptide 59, H-D-Ala(2Thi)-D-4Cpa-D-Leu-D-Arg-Mor] (H-[d2Thi][dPhe(4-Cl)][dL][dR]-Morpholide) |  |  |  |  | 0.25 nM | 3360 nM
10 | CC(C)C[C@@H](NC(=O)[C@@H](Cc1ccc(Cl)c(Cl)c1)NC(=O)[C@H](N)Cc1cccs1)C(=O)N[C@H](CCCNC(=N)N)C(=O)N1CCOCC1 [Peptide 61, H-D-Ala(2Thi)-D-3,4Cpa-D-Leu-D-Arg-Mor] (H-[d2Thi][dPhe(3,4-Cl2)][dL][dR]-Morpholide) |  |  |  | 10,400 | 0.15 nM | 1560 nM
11 | CC(C)C[C@@H](NC(=O)[C@@H](Cc1ccc2ccccc2c1)NC(=O)[C@H](N)Cc1ccc(F)cc1)C(=O)N[C@H](CCCNC(=N)N)C(=O)N1CCOCC1 [Peptide 62, H-D-4Fpa-D-2Nal-D-Leu-D-Arg-Mor] (H-[dPhe(4-F)][d2Nal][dL][dR]-Morpholide) |  |  |  | 3,500 | 0.33 nM | 1140 nM
12 | CC(C)C[C@@H](NC(=O)[C@@H](Cc1ccc(Cl)cc1)NC(=O)[C@H](N)Cc1cccs1)C(=O)N[C@H](CCCNC(=N)N)C(=O)NCc1ccncc1 [Peptide 64, H-D-Ala(2Thi)-D-4Cpa-D-Leu-D-Arg-NH(4Pic)] (H-[d2Thi][dPhe(4-Cl)][dL][dR]-{NH(4-picolyl)}) |  |  |  |  | 0.31 nM | 2380 nM
13 | CC(C)C[C@@H](NC(=O)[C@@H](Cc1ccc(Cl)cc1)NC(=O)[C@H](N)Cc1ccc(F)cc1)C(=O)N[C@H](CCCNC(=N)N)C(=O)N1CCOCC1 [Peptide 65, H-D-4Fpa-D-4Cpa-D-Leu-D-Arg-Mor] (H-[dPhe(4-F)][dPhe(4-Cl)][dL][dR]-Morpholide) |  |  |  |  | 0.17 nM | 1900 nM
14 | H-D-CMP-D-Phe-D-Nle-D-Arg-NH(4Pic) [Peptide 43] |  |  |  | 2,500 |  | 
15 | H-D-Phe-D-Phe-D-Acp-D-Arg-NH(4Pic) [Peptide 44] |  |  |  | 8,200 |  | 
16 | H-D-Phe-D-Phe-D-CML-D-Oro-Mor [Peptide 46] |  |  |  | 14,000 |  | 
17 | H-D-Phe-D-Phe-D-Hle-D-Arg-NH(4Pic) [Peptide 45] |  |  |  | 11,000 |  | 
18 | H-D-Phe-D-Phe-D-Lcu-D-Dbu-Mor [Peptide 53] |  |  |  | 85,000 |  | 
19 | H-D-Phe-D-Phe-D-Lcu-D-Dbu-NH(4Pic) [Peptide 52] |  |  |  | 92,000 |  | 
20 | H-D-Phe-D-Phe-D-Lcu-D-Lys-Mor [Peptide 49] |  |  |  | 92,000 |  | 
21 | H-D-Phe-D-Phe-D-Lcu-D-Lys-NH(4Pic) [Peptide 47] |  |  |  | 30,000 |  | 
22 | H-D-Phe-D-Phe-D-Lcu-D-Lys-NHPr [Peptide 48] |  |  |  | 18,000 |  | 
23 | H-D-Phe-D-Phe-D-Nle-D-Arg-Ecp [Peptide 42] | 0.06 mg/kg | 45.3% | 29.4% | 27,000 |  | 
24 | H-D-Phe-D-Phe-D-Nle-D-Arg-NH-4-Ahz [Peptide 41] |  |  |  | 12,000 |  | 
25 | H-D-Phe-D-Phe-D-Nle-D-Arg-NH-4Nhz [Peptide 40] |  |  |  | 3,800 |  | 
26 | H-D-Phe-D-Phe-D-Nle-D-Har-Mor [Peptide 51] |  |  |  | 12,000 |  | 
27 | H-D-Phe-D-Phe-D-Nle-D-Har-NH(4Pic) [Peptide 50] |  |  |  | 9,300 |  | 
